Laboratory results as given in BindingDB's records for PubMed 20126400 (University of Oklahoma, 2010).

Tests used:
Assay in all cases: Ray2010 Assay 74
[1] = target: 5-hydroxytryptamine receptor 5A (Homo sapiens, UniProt P47898)
From the text: (§1) Table S2 shows raw Ki data for the current study combined with data collected from the literature for the ten additional compounds.

[2] = target: 5-hydroxytryptamine receptor 7 (Homo sapiens, UniProt P34969)
From the text: as §1

Cannabinoid receptor 1 = Cannabinoid receptor 1 (Homo sapiens, UniProt P21554)
Chain of Cannabinoid receptor 1 (P21554 whole entry): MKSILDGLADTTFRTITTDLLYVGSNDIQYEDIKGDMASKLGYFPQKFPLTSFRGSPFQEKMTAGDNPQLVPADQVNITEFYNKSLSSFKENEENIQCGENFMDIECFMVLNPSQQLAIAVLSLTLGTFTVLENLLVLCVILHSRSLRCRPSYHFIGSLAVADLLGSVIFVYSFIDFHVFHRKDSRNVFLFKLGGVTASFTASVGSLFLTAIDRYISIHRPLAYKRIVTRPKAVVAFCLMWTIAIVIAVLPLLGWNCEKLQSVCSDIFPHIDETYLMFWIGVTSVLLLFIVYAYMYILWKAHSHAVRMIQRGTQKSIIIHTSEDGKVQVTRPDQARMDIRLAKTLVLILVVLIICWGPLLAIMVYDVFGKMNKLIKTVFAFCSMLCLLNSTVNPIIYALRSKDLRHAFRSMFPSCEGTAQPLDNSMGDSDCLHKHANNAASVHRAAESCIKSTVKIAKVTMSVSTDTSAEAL
From the text: as §1

Cannabinoid receptor 2 = Cannabinoid receptor 2 (Homo sapiens, UniProt P34972)
Chain of Cannabinoid receptor 2 (P34972 whole entry): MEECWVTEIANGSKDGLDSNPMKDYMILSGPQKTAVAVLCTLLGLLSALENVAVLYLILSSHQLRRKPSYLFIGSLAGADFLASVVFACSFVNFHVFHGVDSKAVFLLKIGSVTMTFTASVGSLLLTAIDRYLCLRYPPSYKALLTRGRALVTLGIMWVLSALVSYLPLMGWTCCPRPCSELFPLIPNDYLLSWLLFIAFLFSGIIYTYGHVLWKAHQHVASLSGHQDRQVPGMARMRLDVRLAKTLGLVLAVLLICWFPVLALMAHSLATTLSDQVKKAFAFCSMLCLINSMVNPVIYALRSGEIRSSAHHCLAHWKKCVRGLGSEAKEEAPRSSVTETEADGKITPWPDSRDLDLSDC
From the text: as §1

D(1B) dopamine receptor = D(1B) dopamine receptor (Homo sapiens, UniProt P21918)
Chain of D(1B) dopamine receptor (P21918 whole entry): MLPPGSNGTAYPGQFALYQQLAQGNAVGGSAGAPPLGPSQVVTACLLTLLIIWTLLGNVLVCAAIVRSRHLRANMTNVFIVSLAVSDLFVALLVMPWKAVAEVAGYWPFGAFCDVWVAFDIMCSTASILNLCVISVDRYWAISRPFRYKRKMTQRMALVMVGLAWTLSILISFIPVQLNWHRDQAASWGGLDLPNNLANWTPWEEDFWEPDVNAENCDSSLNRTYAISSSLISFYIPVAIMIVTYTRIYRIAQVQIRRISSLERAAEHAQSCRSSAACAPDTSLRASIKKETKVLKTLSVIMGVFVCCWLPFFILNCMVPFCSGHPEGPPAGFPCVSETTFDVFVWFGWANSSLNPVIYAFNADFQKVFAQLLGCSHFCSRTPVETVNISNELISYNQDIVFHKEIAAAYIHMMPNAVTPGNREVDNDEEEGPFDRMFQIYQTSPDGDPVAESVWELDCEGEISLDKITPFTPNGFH
From the text: as §1

[3] = target: T1, Gamma-aminobutyric acid receptor subunit alpha-1/Adenosine receptor A1 (Homo sapiens, UniProt P14867+P30542)
T1 sequence (P30542 whole entry): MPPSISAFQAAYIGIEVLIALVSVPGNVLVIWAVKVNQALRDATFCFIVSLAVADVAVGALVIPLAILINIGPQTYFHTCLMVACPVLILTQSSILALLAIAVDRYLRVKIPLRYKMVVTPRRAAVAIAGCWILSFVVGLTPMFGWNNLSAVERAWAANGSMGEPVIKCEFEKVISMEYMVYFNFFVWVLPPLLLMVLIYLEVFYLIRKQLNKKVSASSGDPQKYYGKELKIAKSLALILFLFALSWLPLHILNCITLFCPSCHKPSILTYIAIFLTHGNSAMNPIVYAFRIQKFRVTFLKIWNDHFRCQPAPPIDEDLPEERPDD
T1 sequence (P14867 whole entry): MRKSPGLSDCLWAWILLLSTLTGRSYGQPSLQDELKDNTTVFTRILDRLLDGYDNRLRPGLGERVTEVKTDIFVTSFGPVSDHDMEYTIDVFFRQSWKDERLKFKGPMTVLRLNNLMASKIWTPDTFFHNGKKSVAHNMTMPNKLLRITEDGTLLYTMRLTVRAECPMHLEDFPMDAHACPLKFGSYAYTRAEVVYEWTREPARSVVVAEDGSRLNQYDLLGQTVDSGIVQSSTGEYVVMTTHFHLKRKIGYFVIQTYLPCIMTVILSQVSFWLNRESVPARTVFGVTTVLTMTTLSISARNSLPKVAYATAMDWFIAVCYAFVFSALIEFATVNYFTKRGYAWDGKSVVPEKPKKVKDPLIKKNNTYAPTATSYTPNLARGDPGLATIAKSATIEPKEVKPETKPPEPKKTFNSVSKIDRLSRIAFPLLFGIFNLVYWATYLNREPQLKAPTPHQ
From the text: as §1

Histamine H3 receptor = Histamine H3 receptor (Homo sapiens, UniProt Q9Y5N1)
Chain of Histamine H3 receptor (Q9Y5N1 whole entry): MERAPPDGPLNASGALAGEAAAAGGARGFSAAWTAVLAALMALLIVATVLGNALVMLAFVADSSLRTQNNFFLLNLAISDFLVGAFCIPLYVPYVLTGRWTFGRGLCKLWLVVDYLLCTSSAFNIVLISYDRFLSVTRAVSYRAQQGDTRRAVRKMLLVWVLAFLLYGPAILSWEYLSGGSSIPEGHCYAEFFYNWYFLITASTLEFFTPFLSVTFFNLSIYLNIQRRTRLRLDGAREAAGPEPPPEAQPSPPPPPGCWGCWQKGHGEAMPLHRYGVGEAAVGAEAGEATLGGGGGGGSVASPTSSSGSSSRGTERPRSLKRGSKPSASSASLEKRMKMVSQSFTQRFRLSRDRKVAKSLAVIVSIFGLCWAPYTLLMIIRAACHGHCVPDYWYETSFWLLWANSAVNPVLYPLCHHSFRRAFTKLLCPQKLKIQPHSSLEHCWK
From the text: as §1

Histamine H4 receptor = Histamine H4 receptor (Homo sapiens, UniProt Q9H3N8)
Chain of Histamine H4 receptor (Q9H3N8 whole entry): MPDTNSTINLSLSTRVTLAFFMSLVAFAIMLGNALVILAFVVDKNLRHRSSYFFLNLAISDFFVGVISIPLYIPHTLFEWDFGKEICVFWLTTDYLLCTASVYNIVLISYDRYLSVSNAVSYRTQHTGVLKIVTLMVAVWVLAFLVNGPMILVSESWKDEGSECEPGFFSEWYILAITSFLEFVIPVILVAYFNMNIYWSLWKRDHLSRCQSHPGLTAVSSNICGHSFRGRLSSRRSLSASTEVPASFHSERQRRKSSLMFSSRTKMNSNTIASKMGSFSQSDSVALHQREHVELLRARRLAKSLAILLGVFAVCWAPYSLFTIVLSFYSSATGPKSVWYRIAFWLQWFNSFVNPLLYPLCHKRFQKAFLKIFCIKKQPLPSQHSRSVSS
From the text: as §1

[4] = target: Muscarinic acetylcholine receptor M3 (Homo sapiens, UniProt P20309)
Chain of Muscarinic acetylcholine receptor M3 (P20309 whole entry): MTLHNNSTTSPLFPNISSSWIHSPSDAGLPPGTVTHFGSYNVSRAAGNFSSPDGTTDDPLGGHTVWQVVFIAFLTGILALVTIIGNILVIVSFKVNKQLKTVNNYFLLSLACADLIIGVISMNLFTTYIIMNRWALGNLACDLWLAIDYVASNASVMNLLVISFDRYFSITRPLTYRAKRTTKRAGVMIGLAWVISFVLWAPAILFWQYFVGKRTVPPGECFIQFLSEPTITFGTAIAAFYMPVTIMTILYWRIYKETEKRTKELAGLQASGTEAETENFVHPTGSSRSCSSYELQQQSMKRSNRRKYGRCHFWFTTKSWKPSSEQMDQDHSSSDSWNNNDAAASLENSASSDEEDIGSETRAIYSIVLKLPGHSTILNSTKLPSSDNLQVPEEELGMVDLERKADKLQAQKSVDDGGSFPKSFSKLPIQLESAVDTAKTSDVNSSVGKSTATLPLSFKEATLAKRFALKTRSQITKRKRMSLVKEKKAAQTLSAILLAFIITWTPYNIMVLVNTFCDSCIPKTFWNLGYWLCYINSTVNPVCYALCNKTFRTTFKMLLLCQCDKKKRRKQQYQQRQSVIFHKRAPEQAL
From the text: as §1

[5] = target: T2, Muscarinic acetylcholine receptor M4 (Homo sapiens, UniProt P08173)
T2 sequence (P08173 whole entry): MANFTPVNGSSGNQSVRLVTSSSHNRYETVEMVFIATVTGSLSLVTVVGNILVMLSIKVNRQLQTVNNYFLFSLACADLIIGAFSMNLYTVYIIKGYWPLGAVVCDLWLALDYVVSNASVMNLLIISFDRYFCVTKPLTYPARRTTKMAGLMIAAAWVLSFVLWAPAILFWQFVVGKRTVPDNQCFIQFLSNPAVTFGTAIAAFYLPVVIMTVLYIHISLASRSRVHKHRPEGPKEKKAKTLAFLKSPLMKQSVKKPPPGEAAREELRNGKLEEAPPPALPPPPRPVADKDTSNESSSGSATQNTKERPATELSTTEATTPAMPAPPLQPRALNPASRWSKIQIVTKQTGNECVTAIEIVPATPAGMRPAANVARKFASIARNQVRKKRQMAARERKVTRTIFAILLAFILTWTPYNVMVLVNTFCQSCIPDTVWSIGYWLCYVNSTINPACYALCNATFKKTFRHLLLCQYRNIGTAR
From the text: as §1

[6] = target: T3, Prostaglandin E2 receptor EP3 subtype (Homo sapiens, UniProt P43115)
T3 sequence (P43115 whole entry): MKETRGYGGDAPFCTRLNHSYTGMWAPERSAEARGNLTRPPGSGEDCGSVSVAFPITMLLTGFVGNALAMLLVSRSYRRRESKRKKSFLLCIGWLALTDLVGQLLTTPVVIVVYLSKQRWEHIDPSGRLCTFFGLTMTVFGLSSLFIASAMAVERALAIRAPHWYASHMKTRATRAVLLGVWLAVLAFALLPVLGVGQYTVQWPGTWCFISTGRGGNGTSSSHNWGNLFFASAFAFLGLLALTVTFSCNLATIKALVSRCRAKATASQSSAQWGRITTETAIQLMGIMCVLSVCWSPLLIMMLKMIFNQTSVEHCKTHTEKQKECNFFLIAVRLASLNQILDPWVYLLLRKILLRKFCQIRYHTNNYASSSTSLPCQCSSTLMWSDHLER
From the text: as §1

Vasopressin V1a receptor = Vasopressin V1a receptor (Homo sapiens, UniProt P37288)
From the text: as §1

Vasopressin V1b receptor = target: T4, Vasopressin V1b receptor (Homo sapiens, UniProt P47901)
T4 sequence (P47901 whole entry): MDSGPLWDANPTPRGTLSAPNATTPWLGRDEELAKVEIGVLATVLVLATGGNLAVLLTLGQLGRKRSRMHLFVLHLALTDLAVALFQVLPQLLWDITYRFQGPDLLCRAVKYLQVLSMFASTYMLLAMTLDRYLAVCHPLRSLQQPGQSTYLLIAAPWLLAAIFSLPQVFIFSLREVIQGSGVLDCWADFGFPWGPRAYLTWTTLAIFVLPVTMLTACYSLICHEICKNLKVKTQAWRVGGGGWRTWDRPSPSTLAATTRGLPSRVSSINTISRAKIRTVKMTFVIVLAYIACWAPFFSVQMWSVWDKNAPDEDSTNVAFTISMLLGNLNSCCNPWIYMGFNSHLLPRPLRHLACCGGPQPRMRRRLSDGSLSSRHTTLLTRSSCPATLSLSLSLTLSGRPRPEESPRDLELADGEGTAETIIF
From the text: as §1

[7] = target: Voltage-dependent calcium channel subunit alpha-2/delta-1 (Homo sapiens, UniProt P54289)
Chain of Voltage-dependent calcium channel subunit alpha-2/delta-1 (P54289 25-956 limits assumed): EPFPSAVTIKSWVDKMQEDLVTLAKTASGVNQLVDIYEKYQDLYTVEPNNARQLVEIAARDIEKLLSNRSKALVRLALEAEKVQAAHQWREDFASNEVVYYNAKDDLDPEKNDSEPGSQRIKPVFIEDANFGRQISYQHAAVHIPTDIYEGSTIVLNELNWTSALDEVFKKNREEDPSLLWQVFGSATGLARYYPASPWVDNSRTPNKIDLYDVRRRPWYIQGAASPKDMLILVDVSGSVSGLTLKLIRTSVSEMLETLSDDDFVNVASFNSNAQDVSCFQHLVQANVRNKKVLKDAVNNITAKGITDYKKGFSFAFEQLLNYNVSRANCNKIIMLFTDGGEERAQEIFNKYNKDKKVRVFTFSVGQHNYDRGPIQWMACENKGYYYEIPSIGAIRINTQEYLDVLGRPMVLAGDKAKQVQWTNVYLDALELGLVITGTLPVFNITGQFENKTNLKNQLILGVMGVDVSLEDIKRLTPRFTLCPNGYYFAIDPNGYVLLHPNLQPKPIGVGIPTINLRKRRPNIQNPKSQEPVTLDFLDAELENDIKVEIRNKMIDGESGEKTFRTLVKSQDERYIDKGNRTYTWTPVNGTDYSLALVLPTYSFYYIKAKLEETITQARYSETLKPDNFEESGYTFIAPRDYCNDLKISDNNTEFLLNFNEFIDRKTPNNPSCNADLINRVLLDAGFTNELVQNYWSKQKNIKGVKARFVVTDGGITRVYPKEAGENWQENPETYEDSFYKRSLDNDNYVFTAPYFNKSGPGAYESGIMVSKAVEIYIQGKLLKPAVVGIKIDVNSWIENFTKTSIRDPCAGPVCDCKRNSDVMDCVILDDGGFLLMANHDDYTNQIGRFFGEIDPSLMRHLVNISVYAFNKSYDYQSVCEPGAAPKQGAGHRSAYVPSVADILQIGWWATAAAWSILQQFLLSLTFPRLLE
Chain of Voltage-dependent calcium channel subunit alpha-2/delta-1 (P54289 957-1103 limits assumed): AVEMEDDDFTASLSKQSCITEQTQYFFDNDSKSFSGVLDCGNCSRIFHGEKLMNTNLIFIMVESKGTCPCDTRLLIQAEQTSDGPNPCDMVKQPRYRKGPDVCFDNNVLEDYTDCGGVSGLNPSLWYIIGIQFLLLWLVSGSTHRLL
From the text: as §1

[8] = target: Sigma non-opioid intracellular receptor 1 (Homo sapiens, UniProt Q99720)
Chain of Sigma non-opioid intracellular receptor 1 (Q99720 whole entry): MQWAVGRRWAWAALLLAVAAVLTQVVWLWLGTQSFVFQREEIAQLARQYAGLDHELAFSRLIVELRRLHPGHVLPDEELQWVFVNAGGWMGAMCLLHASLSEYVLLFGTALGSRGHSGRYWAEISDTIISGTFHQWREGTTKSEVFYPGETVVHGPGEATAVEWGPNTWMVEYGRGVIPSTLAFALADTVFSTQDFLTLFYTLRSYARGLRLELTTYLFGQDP
From the text: as §1

Chain of 5-hydroxytryptamine receptor 7 (P34969 whole entry): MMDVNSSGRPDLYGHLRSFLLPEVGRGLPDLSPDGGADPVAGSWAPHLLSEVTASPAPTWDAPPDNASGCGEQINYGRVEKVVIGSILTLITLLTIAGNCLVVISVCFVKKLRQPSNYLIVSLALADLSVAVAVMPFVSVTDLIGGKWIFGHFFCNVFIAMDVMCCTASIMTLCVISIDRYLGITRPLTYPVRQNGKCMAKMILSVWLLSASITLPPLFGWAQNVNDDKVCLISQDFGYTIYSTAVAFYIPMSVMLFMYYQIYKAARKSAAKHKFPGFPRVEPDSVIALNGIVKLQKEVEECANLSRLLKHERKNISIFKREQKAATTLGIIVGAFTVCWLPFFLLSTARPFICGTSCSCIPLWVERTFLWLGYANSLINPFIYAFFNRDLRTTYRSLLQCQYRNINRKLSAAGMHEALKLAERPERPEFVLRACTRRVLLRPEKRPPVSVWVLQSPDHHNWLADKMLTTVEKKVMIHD
Chain of 5-hydroxytryptamine receptor 5A (P47898 whole entry): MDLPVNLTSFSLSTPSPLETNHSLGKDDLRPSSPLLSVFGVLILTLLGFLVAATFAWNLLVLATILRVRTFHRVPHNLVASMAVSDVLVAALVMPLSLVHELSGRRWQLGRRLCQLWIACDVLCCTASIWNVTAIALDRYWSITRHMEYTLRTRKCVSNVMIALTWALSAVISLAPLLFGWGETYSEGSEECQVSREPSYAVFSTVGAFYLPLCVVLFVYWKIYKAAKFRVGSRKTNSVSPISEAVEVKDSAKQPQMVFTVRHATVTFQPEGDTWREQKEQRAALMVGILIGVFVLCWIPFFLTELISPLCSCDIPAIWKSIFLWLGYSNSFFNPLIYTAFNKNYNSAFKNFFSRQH

Compound | Ki [1] [µM] | Ki [2] [µM] | Ki (Cannabinoid receptor 1) [µM] | Ki (Cannabinoid receptor 2) [µM] | Ki (D(1B) dopamine receptor) [µM] | Ki [3] [µM] | Ki (Histamine H3 receptor) [µM] | Ki (Histamine H4 receptor) [µM] | Ki [4] [µM] | Ki [5] [µM] | Ki [6] [µM] | Ki (Vasopressin V1a receptor) [µM] | Ki (Vasopressin V1b receptor) [µM] | Ki [7] [µM] | Ki [8] [µM]
CCc1cc(OC)c(CCN)cc1OC [2-(2,5-dimethoxy-4-ethylphenyl)ethylamine] | > 10 | 0.426 | > 10 | > 10 | > 10 | > 10 | > 10 | > 10 | 2.56 | > 10 | > 10 | > 10 | > 10 | > 10 | 
CAS_82830-44-2::(2R)-1-(4-iodo-2,5-dimethoxyphenyl)propan-2-amine::DOI,(-)::US20250270173, Compound DOI | > 10 | 5.77 | > 10 | > 10 | > 10 |  | > 10 | > 10 | 1.43 | 0.578 |  |  |  |  | 8.56
COC(=O)[C@@H]1C[C@H](OC(C)=O)C(=O)[C@H]2[C@@]1(C)CC[C@H]1C(=O)O[C@H](c3ccoc3)C[C@]21C [2S,4aR,6a(R,7R,9S,10aS,10bR)-9-(acetyloxy)-2-(furan-3-yl)dodecahydro-6a,10b-dimethyl-4,10-dioxo-2H-naphtho[2,1-c]pyran-7-carboxylic acid methyl ester] | > 10 | > 10 |  |  | > 10 |  |  |  | > 10 | > 10 |  |  |  |  | 
CN(C)CCc1c[nH]c2ccccc12 [2-(1H-indol-3-yl)-N,N-dimethylethanamine] | 0.611 | 0.0875 | > 10 | > 10 | > 10 | > 10 | > 10 | > 10 | > 10 | > 10 |  |  |  | > 10 | 5.21
C[C@@H]1C[C@H](C)N1C(=O)C1C=C2c3cccc4[nH]cc(c34)C[C@H]2N(C)C1 (stereo partly drawn) [cis-2a] | 0.0164 |  |  |  |  |  |  |  |  |  |  | > 10 | > 10 |  | 
NCCc1c2c(c(Br)c3c1OCC3)OCC2 [2-(8-Bromo-2,3,6,7-tetrahydro-benzo[1,2-b;4,5-b']difuran-4-yl)-ethylamine] | > 10 |  | > 10 | 8.97 | > 10 |  | > 10 | > 10 | 0.339 | 0.52 |  |  |  |  | > 10
CCc1cc(OC)c(CC(C)N)cc1OC (stereo unspecified) | > 10 | 1.23 | > 10 | > 10 | > 10 |  | > 10 | > 10 |  |  |  |  |  |  | 9.78
COc1cc(CC(C)N)c(OC)cc1C (stereo not drawn) [(+/-)2-(2,5-Dimethoxy-4-methyl-phenyl)-1-methyl-ethylamine] | > 10 | 1.59 | > 10 | > 10 | > 10 |  | > 10 | > 10 |  |  |  |  |  |  | > 10
COc1ccc2[nH]cc(CCN(C)C)c2c1 [3-(2-DIMETHYLAMINOETHYL)-5-METHOXYINDOLE] |  |  | > 10 | > 10 | > 10 | > 10 |  |  | > 10 | > 10 |  |  |  | > 10 | > 10
CNC(C)Cc1ccc2c(c1)OCO2 (stereo unspecified) [mdma] | > 10 | > 10 | > 10 |  | > 10 | > 10 |  |  |  | 8.25 | > 10 |  | > 10 | 1.2 | 
